According to patent US20210330611A1, “THERAPY FOR NEUROLOGICAL DISEASES/DISORDERS” (priority 2020, published 2021):
Counter-ions that a name gives are not always drawn. Like-named read-outs stand apart in the source and are kept apart here.

Legend:
[1] = test system: fibrin-induced microglia activation; test: Image-based assay of fibrin-induced microglia activation (HTS and dose response); type: cell-based, rat; details: for inhibition at 10 µM: Rattus norvegicus, Microglia, read-out: Fibrin % inhibition
[2] = test system: fibrin- and LPS-induced microglia activation; test: cells; type: cell-based, rat
primary rat microglia [3] = test: Cell toxicity (dead cells, size <150 μm2) in LPS assay
primary rat microglia [4] = test: Cell toxicity (dead cells, size <150 μm2) in coated fibrin (cFib) assay;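 further: share of dead cells sized under 150 µm2 at 10 µM in fibrin-stimulated microglia HTS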
[5] = test system: LPS-induced microglia activation; test: Image-based assay of LPS-induced microglia activation (HTS and dose response); type: cell-based, rat; details: for inhibition at 10 µM: Rattus norvegicus, Microglia, read-out: LPS % inhibition
[6] = primary microglia HTS, fibrin stimulation, activation = cell size >800 μm2
[7] = quadrant by fibrin and LPS inhibition in HTS of 1907 compounds
[8] = primary microglia HTS, LPS stimulation, toxicity = cell size <150 μm2
[9] = primary microglia HTS, fibrin stimulation, toxicity = cell size <150 μm2
[10] = 48 h, primary microglia HTS, LPS stimulation, activation = cell size >800 μm2
[11] = primary HTS, 10 μM, fibrin-stimulated primary microglia
[12] = primary HTS, 10 μM, LPS assay, dead cells size <150 μm2
[13] = primary HTS, 10 μM, fibrin assay, dead cells size <150 μm2
[14] = primary HTS, 10 μM, LPS-stimulated primary microglia
[15] = primary microglia HTS, fibrin stimulation, increased cell size (>800 μm^2) as marker of activation
[16] = primary microglia HTS, LPS stimulation, decreased size (<150 μm^2) as marker of toxicity
[17] = primary microglia HTS, fibrin stimulation, decreased size (<150 μm^2) as marker of toxicity
[18] = 48 h, primary microglia HTS, LPS stimulation, increased cell size (>800 μm^2) as marker of activation
[19] = primary microglia HTS, 10 μM, fibrin-stimulated, cell size >800 μm^2 as marker of activation
[20] = HTS of 1907 compounds, quadrant by fibrin and LPS inhibition
[21] = primary microglia HTS, 10 μM, LPS assay, cell size <150 μm^2 as marker of toxicity
[22] = primary microglia HTS, 10 μM, fibrin assay, cell size <150 μm^2 as marker of toxicity
[23] = primary microglia HTS, 10 μM, LPS-stimulated, cell size >800 μm^2 as marker of activation

O=C(NCC1CCCCN1)c1cc(OCC(F)(F)F)ccc1OCC(F)(F)F (centres unmarked) [Flecainide]
inhibition at 10 µM [1, 6]: -35%
Quadrant (FIG. 5b) [2, 7]: Q4
LPS % cell toxicity (primary rat microglia [3]; [8]): 0%
Fibrin % cell toxicity (primary rat microglia [4]; [9]): 0%
inhibition at 10 µM [5, 10]: 5%

CN(C)CCN(Cc1ccc(Cl)cc1)c1ccccn1 [Chloropyramine]
inhibition at 10 µM [1, 11]: 25%
Quadrant (FIG. 5b) ([2]; primary HTS, 10 μM): Q4
LPS % cell toxicity (primary rat microglia [3]; [12]): 0%
Fibrin % cell toxicity (primary rat microglia [4]; [13]): 1%
inhibition at 10 µM [5, 14]: 13%

COc1cc(OC)c(C(=O)CCCN2CCCC2)c(OC)c1 [Buflomedil, Buflomedil Hydrochloride]
Fibrin % inhibition [1, 11]: −37%
Quadrant (FIG. 5b) ([2]; primary HTS, 10 μM): Q4
LPS % cell toxicity (primary rat microglia [3]; [12]): 1%
Fibrin % cell toxicity (primary rat microglia [4]; [13]): 1%
LPS % inhibition [5, 14]: 13%

O=C(O)CCNC(=O)c1ccccc1 [Betamipron]
inhibition at 10 µM [1, 11]: -6%
Quadrant (FIG. 5b) ([2]; primary HTS, 10 μM): Q4
LPS % cell toxicity (primary rat microglia [3]; [12]): 0%
Fibrin % cell toxicity (primary rat microglia [4]; [13]): 1%
inhibition at 10 µM [5, 14]: 14%

CN(C)CCC(c1ccc(Br)cc1)c1ccccn1 (centres unmarked) [Brompheniramine]
inhibition at 10 µM [1, 11]: -20%
Quadrant (FIG. 5b) ([2]; primary HTS, 10 μM): Q4
LPS % cell toxicity (primary rat microglia [3]; [12]): −1%
Fibrin % cell toxicity (primary rat microglia [4]; [13]): 1%
inhibition at 10 µM [5, 14]: -7%

CO/N=C(\C(=O)N[C@@H]1C(=O)N2C(C(=O)[O-])=C(C[N+]3(C)CCCC3)CS[C@H]12)c1csc(N)n1 [Cefepime]
inhibition at 10 µM [1, 11]: -26%
Quadrant (FIG. 5b) ([2]; primary HTS, 10 μM): Q4
LPS % cell toxicity (primary rat microglia [3]; [12]): 0%
Fibrin % cell toxicity (primary rat microglia [4]; [13]): 1%
inhibition at 10 µM [5, 14]: 4%

C=CC1=C(C(=O)O)N2C(=O)[C@@H](NC(=O)/C(=N\O)c3csc(N)n3)[C@H]2SC1 [Cefdinir]
inhibition at 10 µM [1, 11]: -9%
Quadrant (FIG. 5b) ([2]; primary HTS, 10 μM): Q4
LPS % cell toxicity (primary rat microglia [3]; [12]): 0%
Fibrin % cell toxicity (primary rat microglia [4]; [13]): 1%
inhibition at 10 µM [5, 14]: 16%

CN(C)CCCN1c2ccccc2Sc2ccccc21 [Promazine]
inhibition at 10 µM [1, 15]: 46%
Quadrant (FIG. 5b) [2, 7]: Q1
LPS % cell toxicity (primary rat microglia [3]; [16]): 64%
Fibrin % cell toxicity (primary rat microglia [4]; [17]): 1%
inhibition at 10 µM [5, 18]: 117%

O=C1OC(CN2CCOCC2)CN1/N=C/c1ccc([N+](=O)[O-])o1 (centres unmarked) [Furaltadone]
inhibition at 10 µM [1, 6]: -60%
Quadrant (FIG. 5b) [2, 7]: Q4
LPS % cell toxicity (primary rat microglia [3]; [8]): 0%
Fibrin % cell toxicity (primary rat microglia [4]; [9]): 1%
inhibition at 10 µM [5, 10]: 0%

O=C1c2ccccc2C(=O)C1c1ccc(Cl)cc1 [Chlorindione]
Fibrin % inhibition [1, 11]: −7%
Quadrant (FIG. 5b) ([2]; primary HTS, 10 μM): Q4
LPS % cell toxicity (primary rat microglia [3]; [12]): 0%
Fibrin % cell toxicity (primary rat microglia [4]; [13]): 1%
LPS % inhibition [5, 14]: 10%

Cc1nc2ccccc2n1Cc1ccc(Cl)cc1 [Chlormidazole]
inhibition at 10 µM [1, 15]: 38%
Quadrant (FIG. 5b) [2, 7]: Q1
LPS % cell toxicity (primary rat microglia [3]; [16]): 2%
Fibrin % cell toxicity (primary rat microglia [4]; [17]): 1%
inhibition at 10 µM [5, 18]: 70%

COc1ccc2c(c1OC)C(=O)O[C@@H]2[C@H]1c2c(cc3c(c2OC)OCO3)CCN1C [Noscapine Hydrochloride]
inhibition at 10 µM [1, 15]: -15%
Quadrant (FIG. 5b) [2, 7]: Q4
LPS % cell toxicity (primary rat microglia [3]; [16]): 0%
Fibrin % cell toxicity (primary rat microglia [4]; [17]): 1%
inhibition at 10 µM [5, 18]: 23%

C=C1/C(=C\C=C2/CCC[C@]3(C)[C@@H]([C@H](C)/C=C/[C@@H](O)C4CC4)CC[C@@H]23)C[C@@H](O)C[C@@H]1O [Calcipotriol]
inhibition at 10 µM [1, 11]: 2%
Quadrant (FIG. 5b) ([2]; primary HTS, 10 μM): Q4
LPS % cell toxicity (primary rat microglia [3]; [12]): 0%
Fibrin % cell toxicity (primary rat microglia [4]; [13]): 1%
inhibition at 10 µM [5, 14]: -8%

C[N+](C)(C)CCOC(=O)CCC(=O)OCC[N+](C)(C)C [Succinylcholine]
inhibition at 10 µM [1, 19]: -54%
Quadrant (FIG. 5b) [2, 20]: Q4
LPS % cell toxicity (primary rat microglia [3]; [21]): 0%
Fibrin % cell toxicity (primary rat microglia [4]; [22]): 1%
inhibition at 10 µM [5, 23]: -5%

CN(C)[C@@H]1C(O)=C(C(N)=O)C(=O)[C@@]2(O)C(O)=C3C(=O)c4c(O)ccc(Cl)c4[C@@](C)(O)[C@H]3C[C@@H]12 [Chlortetracycline]
inhibition at 10 µM [1, 11]: -15%
Quadrant (FIG. 5b) ([2]; primary HTS, 10 μM): Q4
LPS % cell toxicity (primary rat microglia [3]; [12]): 0%
Fibrin % cell toxicity (primary rat microglia [4]; [13]): 1%
inhibition at 10 µM [5, 14]: -6%

COc1cc(NS(=O)(=O)c2ccc(N)cc2)nc(OC)n1 [Sulfadimethoxine]
inhibition at 10 µM [1, 19]: 42%
Quadrant (FIG. 5b) [2, 20]: Q4
LPS % cell toxicity (primary rat microglia [3]; [21]): 0%
Fibrin % cell toxicity (primary rat microglia [4]; [22]): 1%
inhibition at 10 µM [5, 23]: 13%

CC[C@@H](C(N)=O)N1CCCC1=O [Levetiracetam]
inhibition at 10 µM [1, 6]: -24%
Quadrant (FIG. 5b) [2, 7]: Q4
LPS % cell toxicity (primary rat microglia [3]; [8]): 0%
Fibrin % cell toxicity (primary rat microglia [4]; [9]): 1%
inhibition at 10 µM [5, 10]: 7%

NC[C@H]1O[C@H](O[C@H]2[C@H](O)[C@@H](O[C@H]3O[C@H](CO)[C@@H](O)[C@H](N)[C@H]3O)[C@H](N)C[C@@H]2N)[C@H](N)C[C@@H]1O [Tobramycin]
inhibition at 10 µM [1, 19]: 1%
Quadrant (FIG. 5b) [2, 20]: Q4
LPS % cell toxicity (primary rat microglia [3]; [21]): 0%
Fibrin % cell toxicity (primary rat microglia [4]; [22]): 1%
inhibition at 10 µM [5, 23]: 24%

C[N+](C)(C)C[C@H](O)CC(=O)[O-] [Levocarnitine]
inhibition at 10 µM [1, 6]: 8%
Quadrant (FIG. 5b) [2, 7]: Q4
LPS % cell toxicity (primary rat microglia [3]; [8]): 0%
Fibrin % cell toxicity (primary rat microglia [4]; [9]): 1%
inhibition at 10 µM [5, 10]: 15%

NC(=O)c1cc[n+](CC2=C(C(=O)O)N3C(=O)[C@@H](NC(=O)[C@@H](c4ccccc4)S(=O)(=O)[O-])[C@H]3SC2)cc1 [Cefsulodin Sodium]
inhibition at 10 µM [1, 11]: 3%
Quadrant (FIG. 5b) ([2]; primary HTS, 10 μM): Q4
LPS % cell toxicity (primary rat microglia [3]; [12]): 0%
Fibrin % cell toxicity (primary rat microglia [4]; [13]): 0%
inhibition at 10 µM [5, 14]: 14%

COc1cnc(NS(=O)(=O)c2ccc(N)cc2)nc1 [Sulfameter]
inhibition at 10 µM [1, 19]: 4%
Quadrant (FIG. 5b) [2, 20]: Q4
LPS % cell toxicity (primary rat microglia [3]; [21]): 0%
Fibrin % cell toxicity (primary rat microglia [4]; [22]): 1%
inhibition at 10 µM [5, 23]: 11%

CN1C(=O)OC(C)(C)C1=O [Trimethadione]
inhibition at 10 µM [1, 19]: -5%
Quadrant (FIG. 5b) [2, 20]: Q4
LPS % cell toxicity (primary rat microglia [3]; [21]): 0%
Fibrin % cell toxicity (primary rat microglia [4]; [22]): 1%
inhibition at 10 µM [5, 23]: 14%

O=C(NCCN1CCOCC1)c1ccc(Cl)cc1 [Moclobemide]
inhibition at 10 µM [1, 15]: -6%
Quadrant (FIG. 5b) [2, 7]: Q4
LPS % cell toxicity (primary rat microglia [3]; [16]): 0%
Fibrin % cell toxicity (primary rat microglia [4]; [17]): 1%
inhibition at 10 µM [5, 18]: 14%

C[C@@H](O)[C@@H]1NC(=O)[C@H](CCCCN)NC(=O)[C@@H](Cc2c[nH]c3ccccc23)NC(=O)[C@H](Cc2ccccc2)NC(=O)[C@@H](NC(=O)[C@H](N)Cc2ccccc2)CSSC[C@@H](C(=O)N[C@H](CO)[C@@H](C)O)NC1=O [Octreotide]
Fibrin % inhibition [1, 15]: 3%
Quadrant (FIG. 5b) [2, 7]: Q4
LPS % cell toxicity (primary rat microglia [3]; [16]): 1%
Fibrin % cell toxicity (primary rat microglia [4]; [17]): 1%
LPS % inhibition ([5]; primary microglia HTS, LPS stimulation, increased cell size (>800 μm^2) as marker of activation): −5%

Cc1cc(O)ccc1Cl [Chlorocresol]
inhibition at 10 µM [1, 11]: -25%
Quadrant (FIG. 5b) ([2]; primary HTS, 10 μM): Q4
LPS % cell toxicity (primary rat microglia [3]; [12]): 0%
Fibrin % cell toxicity (primary rat microglia [4]; [13]): 1%
inhibition at 10 µM [5, 14]: 11%

CC(=O)Oc1cccc(C)c1 [Meta-cresyl Acetate]
inhibition at 10 µM [1, 15]: -7%
Quadrant (FIG. 5b) [2, 7]: Q4
LPS % cell toxicity (primary rat microglia [3]; [16]): 0%
Fibrin % cell toxicity (primary rat microglia [4]; [17]): 1%
inhibition at 10 µM [5, 18]: -3%

CCCCCCNC(=O)n1cc(F)c(=O)[nH]c1=O [Carmofur]
inhibition at 10 µM [1, 11]: -13%
Quadrant (FIG. 5b) ([2]; primary HTS, 10 μM): Q4
LPS % cell toxicity (primary rat microglia [3]; [12]): 0%
Fibrin % cell toxicity (primary rat microglia [4]; [13]): 0%
inhibition at 10 µM [5, 14]: 17%

O=C(O)c1nn(Cc2ccc(Cl)cc2Cl)c2ccccc12 [Lonidamine]
inhibition at 10 µM [1, 6]: 7%
Quadrant (FIG. 5b) [2, 7]: Q4
LPS % cell toxicity (primary rat microglia [3]; [8]): 0%
Fibrin % cell toxicity (primary rat microglia [4]; [9]): 1%
inhibition at 10 µM [5, 10]: 19%
